Consider 40 molecules from patent publication US11407740B2 (priority 2018, dated 2022).

Molecules are shown by their SMILES. Values after ≈ are worked out from the molar mass of the structure shown.

As usually defined, the MIC is the smallest concentration in the dilution series that meets the test's criterion for growth inhibition.

Assay [1] relates to E. coli. The experiment in a line: Bacterial susceptibility testing, MIC by broth microdilution (CLSI). To be noted: for MIC: Escherichia coli, read-out: E. coli MIC, broth microdilution, 35° C., 18-24 h; for E. coli MIC: broth microdilution, 35° C., 18-24 h. For orientation: Dilution methods test growth across graded concentrations, often in twofold steps.
Protocol: (§1) Minimal inhibitory concentrations (MIC) were determined by the broth microdilution method in accordance with the Clinical and Laboratory Standards Institute (CLSI) guidelines. In brief, organism suspensions were adjusted to a 0.5 McFarland standard to yield a final inoculum between 3×10^3 and 7×10^5 colony-forming units (CFU)/mL. Drug dilutions and inocula were made in sterile, cation adjusted Mueller-Hinton Broth (Beckton Dickinson). An inoculum volume of 100 μL was added to wells containing 100 μL of broth with 2-fold serial dilutions of drug.
Assay [2] relates to K. pneumoniae. The description is as above. Type of assay: cell-based. The settings on record: 35° C., 18-24 h.
Protocol: as §1

Turning to `O=c1[nH]cnc(CC(CO)c2ccc(C#Cc3ccc(CN4CCNCC4)cc3)cc2)c1O` (stereo not drawn) [Compound 54], in assay [1], the MIC fell in the range of 1 to 8 µg/mL (≈ 2.25 to 18 µM). In assay [2], the “K. pneumoniae MIC” value is recorded as “B (B: >1 μg/mL to ≤8.0 μg/mL)”.

Consider `O=c1[nH]cnc(CC(CO)c2ccc(C#Cc3ccc(CN4CCNCC4)cc3)cc2)c1O` (stereo not drawn) [Compound 55], for which the “E. coli MIC” value in assay [1] is reported as “B (B: >1 μg/mL to ≤8.0 μg/mL)”. For the same molecule, the “K. pneumoniae MIC” value in assay [2] is recorded as “D (D: >32 μg/mL)”. On to `COC(=O)C(Cc1nc[nH]c(=O)c1O)N1Cc2cc(C#Cc3ccc(CN4CCOCC4)cc3)cn2C1=O` (stereo not drawn) [Compound 192], for which, in assay [1], the MIC was 1 to 8 µg/mL (≈ 1.93 to 15.5 µM). Consider `O=C1N(C(CO)Cc2nc[nH]c(=O)c2O)Cc2cc(C#Cc3ccc(CN4CCOCC4)cc3)cn21` (stereo not drawn) [Compound 193], for which the minimum inhibitory concentration (MIC) in assay [1] lay in the range of 1 to 8 µg/mL (≈ 2.04 to 16.3 µM).

For `O=c1[nH]cnc(CC(CO)c2ccc(C#Cc3cnn(CC4CCOCC4)c3)cc2)c1O` (stereo not drawn) [Compound 194], in assay [1], the MIC was 1 to 8 µg/mL (≈ 2.3 to 18.4 µM).

Regarding `O=c1[nH]cnc(CC(CO)c2ccc(C#Cc3ccc(CN4CCOCC4)nc3)cc2)c1O` (stereo not drawn) [Compound 195], the MIC in assay [1] was in the range of 1 to 8 µg/mL (≈ 2.24 to 17.9 µM).

Consider `O=c1[nH]cnc(CC(CO)c2ccc(C#Cc3ccc(CN4CCOCC4)cc3)cn2)c1O` (stereo not drawn) [Compound 196], for which the MIC in assay [1] lay in the range of 1 to 8 µg/mL (≈ 2.24 to 17.9 µM). As for `Cn1cc(C#Cc2ccc(C(CO)Cc3nc[nH]c(=O)c3O)cc2)cn1` (stereo not drawn) [Compound 197], in assay [1], the MIC fell in the range of 8 to 32 µg/mL (≈ 22.8 to 91.3 µM). On to `Cn1cc(C#Cc2ccc(C(CNCCF)Cc3nc[nH]c(=O)c3O)cc2)cn1` (stereo not drawn) [Compound 199], for which the MIC in assay [1] was in the range of 1 to 8 µg/mL (≈ 2.53 to 20.2 µM).

Turning to `Cn1cc(C#Cc2ccc(C(N)Cc3nc[nH]c(=O)c3O)cc2)cn1` (stereo not drawn) [Compound 200], in assay [1], the MIC was in the range of 1 to 8 µg/mL (≈ 2.98 to 23.9 µM).

For the molecule `O=c1[nH]cnc(CC(CO)c2ccc(C#Cc3cnn(C4CCOCC4)c3)cc2)c1O` (stereo not drawn) [Compound 202], in assay [1], the MIC lay within 1 to 8 µg/mL (≈ 2.38 to 19 µM). In the case of `O=C1N(C(CO)Cc2nc[nH]c(=O)c2O)Cc2cc(-c3ccc(CCN4CCOCC4)cc3)cn21` (stereo not drawn) [Compound 203], the MIC in assay [1] lay in the range of 1 to 8 µg/mL (≈ 2.09 to 16.7 µM). Turning to `O=c1[nH]cnc(C[C@H](CO)c2ccc(C#C[C@H]3CC[C@H](CN4CCOCC4)CC3)cc2)c1O` [Compound 204], the MIC in assay [1] was 8 to 32 µg/mL (≈ 17.7 to 70.9 µM). With `O=c1[nH]cnc(CC(CNCCF)c2ccc(C#Cc3cnn(C4CCOCC4)c3)cc2)c1O` (stereo not drawn) [Compound 205], the MIC in assay [1] is 1 to 8 µg/mL (≈ 2.15 to 17.2 µM). With `O=c1[nH]cnc(CC(CNCCF)c2ccc(C#Cc3cnn(CC4CCOCC4)c3)cc2)c1O` (stereo not drawn) [Compound 206], the MIC in assay [1] lay in the range of 1 to 8 µg/mL (≈ 2.09 to 16.7 µM).

For `O=c1[nH]cnc(CC(CNCCF)c2ccc(C#Cc3ccn4cncc4c3)cc2)c1O` (stereo not drawn) [Compound 207], the MIC in assay [1] fell in the range of 1 to 8 µg/mL (≈ 2.32 to 18.5 µM). For `O=c1[nH]cnc(CC(CNCCF)c2ccc(C#Cc3cnn(C4COC4)c3)cc2)c1O` (stereo not drawn) [Compound 208], the MIC in assay [1] was 1 to 8 µg/mL (≈ 2.29 to 18.3 µM).

`O=c1[nH]cnc(CC2CCc3cc(C#Cc4ccc(CN5CCOCC5)cc4)ccc32)c1O` (stereo not drawn) [Compound 209]: the MIC in assay [1] lay within 1 to 8 µg/mL (≈ 2.26 to 18.1 µM). In the case of `O=C1NC(Cc2nc[nH]c(=O)c2O)c2ccc(C#Cc3ccc(CN4CCOCC4)cc3)cc21` (stereo not drawn) [Compound 210], the MIC in assay [1] lay in the range of 1 to 8 µg/mL (≈ 2.19 to 17.5 µM). For the molecule `O=c1[nH]cnc(CC(CO)n2ccc(C#Cc3ccc(CN4CCOCC4)cc3)cc2=O)c1O` (stereo not drawn) [Compound 211], the MIC in assay [1] was 8 to 32 µg/mL (≈ 17.3 to 69.2 µM).

Consider `O=C(O)C(Cc1nc[nH]c(=O)c1O)N1Cc2cc(-c3ccc(CCN4CCOCC4)cc3)cn2C1=O` (stereo not drawn) [Compound 212], for which the MIC in assay [1] was greater than 32 µg/mL. On to `NC(Cc1nc[nH]c(=O)c1O)c1ccc(-c2ccc(CCN3CCOCC3)cc2)cc1` (stereo not drawn) [Compound 214], for which the MIC in assay [1] was in the range of 8 to 32 µg/mL (≈ 19 to 76.1 µM). As for `COC1CN(Cc2ccc(C#Cc3ccc(C(CNC(C)(C)CF)Cc4nc[nH]c(=O)c4O)cc3)cc2)C1` (stereo not drawn) [Compound 221], in assay [1], the minimum inhibitory concentration (MIC) was less than 1 µg/mL. Same read-out and setting: with `COC1CN(Cc2ccc(C#Cc3ccc(C(CNC4CC4)Cc4nc[nH]c(=O)c4O)cc3)cc2)C1` (stereo not drawn) [Compound 223] the figure was less than 1 µg/mL. As for `COC1CN(Cc2ccc(C#Cc3ccc(C(CNC4CC4)Cc4nc[nH]c(=O)c4O)cc3)cc2)C1` (stereo not drawn) [Compound 224], the “E. coli MIC” value in assay [1] is “B (B: >1 μg/mL to ≤8.0 μg/mL)”.

Consider `COC1CN(Cc2ccc(C#Cc3ccc(C(CNC4CC4)Cc4nc[nH]c(=O)c4O)c(F)c3)cc2)C1` (stereo not drawn) [Compound 225], for which the MIC in assay [1] was less than 1 µg/mL.

In the case of `O=c1[nH]cnc(CC(CN2CC(O)C2)c2ccc(C#Cc3ccc(CN4CCOCC4)cc3)cc2F)c1O` (stereo not drawn) [Compound 231], the MIC in assay [1] was less than 1 µg/mL.

On to `O=C(CO)NC1CCN(Cc2ccc(C#Cc3ccc(C(CO)Cc4nc[nH]c(=O)c4O)cc3)cc2)CC1` (stereo not drawn) [Compound 240], for which the MIC in assay [1] is less than 1 µg/mL. Consider `O=C(CO)NC1CCN(Cc2ccc(C#Cc3ccc(C(CO)Cc4nc[nH]c(=O)c4O)cc3)cc2)CC1` (stereo not drawn) [Compound 241], for which the “E. coli MIC” value in assay [1] is on record as “B (B: >1 μg/mL to ≤8.0 μg/mL)”. As for `O=C(CO)NC1CCN(Cc2ccc(C#Cc3ccc(C(CO)Cc4nc[nH]c(=O)c4O)cc3)cc2)CC1` (stereo not drawn) [Compound 242], the “E. coli MIC” value in assay [1] is listed as “A (A: ≤1 μg/mL)”.

As to `COC1CN(Cc2ccc(C#Cc3ccc(C(CNC(CO)CF)Cc4nc[nH]c(=O)c4O)cc3)cc2)C1` (stereo not drawn) [Compound 244], the MIC in assay [1] was in the range of 1 to 8 µg/mL (≈ 1.92 to 15.4 µM). On the same count and under the same terms, with `COC1CN(Cc2ccc(C#Cc3ccc(C(CNCC(F)CO)Cc4nc[nH]c(=O)c4O)cc3)cc2)C1` (stereo not drawn) [Compound 249] the figure was 1 to 8 µg/mL (≈ 1.92 to 15.4 µM); with `NCC1CN(Cc2ccc(C#Cc3ccc(C(CO)Cc4nc[nH]c(=O)c4O)cc3)cc2)CCO1` (stereo not drawn) [Compound 258], 1 to 8 µg/mL (≈ 2.11 to 16.9 µM); with `O=c1[nH]cnc(CC(CO)c2ccc(C#Cc3ccc(CNC4CCNCC4)cc3)cc2)c1O` (stereo not drawn) [Compound 259], 1 to 8 µg/mL (≈ 2.18 to 17.4 µM).

Turning to `NCC(=O)N1CCC(C#Cc2ccc(C(CO)Cc3nc[nH]c(=O)c3O)cc2)CC1` (stereo not drawn) [Compound 263], the MIC in assay [1] is greater than 32 µg/mL. As to `O=C(CO)N1CCC(C#Cc2ccc(C(CO)Cc3nc[nH]c(=O)c3O)cc2)CC1` (stereo not drawn) [Compound 264], in assay [1], the MIC is greater than 32 µg/mL.

Regarding `CS(=O)(=O)NC(Cc1nc[nH]c(=O)c1O)c1ccc(C#Cc2ccc(CN3CCOCC3)cc2)cc1` (stereo not drawn) [Compound 289], the MIC in assay [1] was less than 1 µg/mL.

Consider `CS(=O)(=O)N[C@H](Cc1nc[nH]c(=O)c1O)c1ccc(C#Cc2ccc(CN3CCNC[C@H]3CO)cc2)cc1` [Compound 291], for which the MIC in assay [1] is less than 1 µg/mL. As to `CC(C)(CF)NCC(Cc1nc[nH]c(=O)c1O)c1ccc(C#Cc2ccc(CN3CCOCC3)cc2)cc1` (stereo not drawn) [Compound 301], the MIC in assay [1] was less than 1 µg/mL. On to `Cc1nccn1CC(Cc1nc[nH]c(=O)c1O)c1ccc(C#Cc2ccc(CN3CCOCC3)cc2)cc1` (stereo not drawn) [Compound 305], for which the MIC in assay [1] is less than 1 µg/mL.
